Assay results: paper PMC4748418 (Journal of chromatography. A, 2015)

What was measured:
α3β4α5 nAChR [1] = target: T1, α3β4α5 nAChR (Homo sapiens, UniProt P30532+P30926+P32297); assay: biochemical
α3β4α5 nAChR [2] = target: T1, α3β4α5 nAChR; conditions: agonist binding site
α3β4 nAChR = α3β4 nAChR (Homo sapiens, UniProt P30926+P32297); assay: biochemical
Sequence of α3β4 nAChR (P32297 32-505): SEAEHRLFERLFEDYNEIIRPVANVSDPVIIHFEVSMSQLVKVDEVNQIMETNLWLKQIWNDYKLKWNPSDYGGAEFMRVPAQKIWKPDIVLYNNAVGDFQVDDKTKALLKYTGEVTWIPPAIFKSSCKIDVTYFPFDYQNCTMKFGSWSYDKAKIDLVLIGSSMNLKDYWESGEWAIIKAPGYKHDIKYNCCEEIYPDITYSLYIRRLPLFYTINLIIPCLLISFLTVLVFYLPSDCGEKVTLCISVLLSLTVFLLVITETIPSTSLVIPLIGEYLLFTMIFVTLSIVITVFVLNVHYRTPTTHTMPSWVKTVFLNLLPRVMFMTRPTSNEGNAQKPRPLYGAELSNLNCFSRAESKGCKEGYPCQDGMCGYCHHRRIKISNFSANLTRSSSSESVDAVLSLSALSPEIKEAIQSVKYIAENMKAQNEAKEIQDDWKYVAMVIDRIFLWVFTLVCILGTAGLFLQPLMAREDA
Sequence of α3β4 nAChR (P30926 22-498): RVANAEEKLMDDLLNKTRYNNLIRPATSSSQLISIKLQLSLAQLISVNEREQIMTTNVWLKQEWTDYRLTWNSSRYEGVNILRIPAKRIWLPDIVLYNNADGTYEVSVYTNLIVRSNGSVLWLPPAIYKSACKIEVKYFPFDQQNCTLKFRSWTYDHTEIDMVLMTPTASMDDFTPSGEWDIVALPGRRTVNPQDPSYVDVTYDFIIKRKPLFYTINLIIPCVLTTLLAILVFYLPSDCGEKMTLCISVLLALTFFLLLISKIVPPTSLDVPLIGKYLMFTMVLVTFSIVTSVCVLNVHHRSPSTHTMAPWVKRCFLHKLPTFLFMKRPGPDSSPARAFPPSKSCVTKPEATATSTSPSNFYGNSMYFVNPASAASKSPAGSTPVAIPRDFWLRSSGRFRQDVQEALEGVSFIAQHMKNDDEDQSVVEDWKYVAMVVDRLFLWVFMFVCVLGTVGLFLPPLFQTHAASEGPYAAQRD

T1 sequence (P32297 32-505): as the sequence (P32297 32-505) above
T1 sequence (P30926 22-498): as the sequence (P30926 22-498) above
T1 sequence (P30532 23-468): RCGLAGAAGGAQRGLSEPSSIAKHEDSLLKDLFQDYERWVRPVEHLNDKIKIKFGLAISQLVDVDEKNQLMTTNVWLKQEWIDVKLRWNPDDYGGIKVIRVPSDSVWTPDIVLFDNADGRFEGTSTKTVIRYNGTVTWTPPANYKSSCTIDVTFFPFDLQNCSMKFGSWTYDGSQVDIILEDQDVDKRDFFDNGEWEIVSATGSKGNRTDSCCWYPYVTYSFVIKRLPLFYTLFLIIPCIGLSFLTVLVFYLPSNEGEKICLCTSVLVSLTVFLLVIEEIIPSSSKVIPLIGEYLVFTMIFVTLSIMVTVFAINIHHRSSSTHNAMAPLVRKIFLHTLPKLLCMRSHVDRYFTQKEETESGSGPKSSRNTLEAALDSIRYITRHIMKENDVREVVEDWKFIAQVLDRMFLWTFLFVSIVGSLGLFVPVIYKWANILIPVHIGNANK

Structure (SMILES)	Ki (α3β4α5 nAChR [1])	higher affinity for the α3β4α5 nAChR vs the α3β4 nAChR (α3β4α5 nAChR [2])	subtype selectivity between α3β4 and α3β4α5 nicotinic receptors (α3β4α5 nAChR [2])	Ki (α3β4 nAChR)	Kd (α3β4α5 nAChR [1])	Kd (α3β4 nAChR)
c1cncc([C@@H]2CCCCN2)c1 [Anabasine]	0.0675 ± 0.0258 µM	10 fold	selective for the α3β4α5 nicotinic receptor	0.528 ± 0.136 µM		
O=c1cccc2n1C[C@@H]1CNC[C@H]2C1 [Cytisine]	0.0054 ± 0.0035 µM			0.00852 ± 0.0057 µM	0.0054 µM	0.0085 µM
c1cncc([C@@H]2CCCN2)c1 [Nornicotine]	0.0208 ± 0.0117 µM		no subtype selectivity	0.0356 ± 0.0189 µM	0.021 µM	0.036 µM
